Laboratory results taken from US10040803B2, “4-((2-acrylamidophenyl)amino)thieno[3,2-D]pyrimidine-7-carboxamide derivatives as protein kinase inhibitors” (KOREA INSTITUTE OF SCIENCE AND TECHNOLOGY, priority 2016, dated 2018).

Legend:
HUH7 cells = assay: Inhibition of growth of liver cancer cell line HUH7 (CellTiter-Glo); assay type: cell-based; settings: Homo sapiens, Huh-7, CellTiter-Glo luminescence
Procedure: (§1) The inhibition activity for liver cancer cell lines was measured for 4-((2-acrylamido-6-methylphenyl)amino)-N-(3,5-dimethoxyphenyl)thieno[3,2-d]pyrimidine-7-carboxamide (Compound 1) and 4-((2-acrylamido-6-methylphenyl)amino)-N-(2-methyl-5-(3-(trifluoromethyl)benzamido)phenyl)thieno[3,2-d]pyrimidine-7-carboxamide (Compound 2) synthesized in the present invention.
(§2) Hep3B or HUH7 cells were seeded onto a 96-well plate with 5,000 cells per well and then cultured overnight in F-12K Nutrient Mixture (Life Technologies Corporation) containing 10% FBS at 37° C. in the presence of 5% CO2. The test compound dissolved in dimethyl sulfoxide was diluted to a final concentration of 1-50 μM and then added to the 96-well plate. After culturing at 37° C. in the presence of 5% CO2 and adding a cell count reagent (CellTiter-Glo® Luminescent Cell Viability Assay), luminescence intensity was measured using a luminescence measuring apparatus (Envision).

Hep3B cells = assay: Inhibition of growth of liver cancer cell line Hep3B (CellTiter-Glo); assay type: cell-based; settings: Homo sapiens, CellTiter-Glo luminescence
Procedure: as §1, §2

Row | Compound | GI50 (HUH7 cells) | GI50 (Hep3B cells)
1 | C=CC(=O)Nc1cccc(C)c1Nc1ncnc2c(C(=O)Nc3cc(OC)cc(OC)c3)csc12 [Compound 1, 4-((2-acrylamido-6-methylphenyl)amino)-N-(3,5-dimethoxyphenyl)thieno[3,2-d]pyrimidine-7-carboxamide] | < 10 µM | < 10 µM
2 | C=CC(=O)Nc1cccc(C)c1Nc1ncnc2c(C(=O)Nc3cc(NC(=O)c4cccc(C(F)(F)F)c4)ccc3C)csc12 [Compound 2, 4-((2-acrylamido-6-methylphenyl)amino)-N-(2-methyl-5-(3-(trifluoromethyl)benzamido)phenyl)thieno[3,2-d]pyrimidine-7-carboxamide] | < 1 µM | < 1 µM
